Data on 3 compounds can be found in US20220274927A1, “MEMBRANE-ACTIVE ANTI-BACTERIAL COMPOUNDS AND USES THEREOF” (Trustees of Dartmouth College, priority 2019, published 2022).

In data set [1] the test system is methicillin-resistant S. aureus (FPR3757). Description: MIC against clinical MRSA strain FPR3757 in Mueller-Hinton broth (CLSI). It is filed as cell-based, Staphylococcus aureus. Conditions: MRSA clinical strain FPR3757, Mueller-Hinton broth, CLSI guidelines, complete inhibition of observable growth.
Another data set concerns S. aureus MW2. Description: Antimicrobial susceptibility MIC, S. aureus MW2. The data set is classed as cell-based. The note with it: Staphylococcus aureus; S. aureus strain MW2; read-out: MIC. The source says: (§1) The first set of compounds evaluated were analogs at the C-7 and C-8 positions of the initial quinolone hit DNAC-2 since the other HTS hits identified (data not shown) were substituted at these positions (Table 1). Applicants first explored modification at the C-7 position with a small series of electron-donating and withdrawing substituents. […] However, analogs containing electron donating groups at C-7 including ethyl 7, benzyloxy 8, methoxy 9 and methylthio 10 are weakly active displaying MICs of 320-640 μg/mL indicating electron-donating substituents at C-7 are poorly tolerated. […] The C-8 position was evaluated with trifluoromethyl 4 and trifluoromethoxy 5 containing the optimal C-7 substituents. Both 4 and 5 are equipotent to the corresponding C-7 analogs 2 and 3 indicating some flexibility of the quinolone scaffold.
(§2) The compounds maintain activity against Staphylococcus epidermidis; however, 31, 111 and 123 all lose considerable potency against Enterococcus faecalis and Enterococcus faecium, which contribute heavily, along with MRSA, to healthcare-associated infections.

Another data set has as its system S. aureus COL. The experiment in a line: Antimicrobial susceptibility MIC, S. aureus COL. The note with it: Staphylococcus aureus; S. aureus strain COL. The data set is classed as cell-based.
Excerpt: as §1, §2

The next data set deals with S. aureus N325. The experiment in a line: Antimicrobial susceptibility MIC, S. aureus N325. It is filed as cell-based. Conditions: Staphylococcus aureus; S. aureus strain N325.
Excerpt: as §1, §2

In the next data set the test system is S. aureus NRS71. Description: Antimicrobial susceptibility MIC, S. aureus NRS71. It is filed as cell-based. The note with it: Staphylococcus aureus; S. aureus strain NRS71.
Excerpt: as §1, §2

The test system of another data set is S. aureus NIH04008. Description: Antimicrobial susceptibility MIC, S. aureus NIH04008. It is filed as cell-based. Conditions: Staphylococcus aureus; S. aureus strain NIH04008; read-out: MIC.
Excerpt: as §1, §2

The subject of another data set is S. epidermidis NIH04003. Description: Antimicrobial susceptibility MIC, S. epidermidis NIH04003. The data set is classed as cell-based. Conditions: Staphylococcus epidermidis; S. epidermidis strain NIH04003.
Excerpt: as §1, §2

The subject of a further data set is E. faecalis DHMC #1. Description: Antimicrobial susceptibility MIC, E. faecalis DHMC #1. It is filed as cell-based. Conditions: Enterococcus faecalis; E. faecalis strain DHMC #1.
Excerpt: as §1, §2

In a further data set the test system is E. faecium DHMC #1. The experiment in a line: Antimicrobial susceptibility MIC, E. faecium DHMC #1. Conditions: Enterococcus faecium; E. faecium strain DHMC #1. The data set is classed as cell-based.
Excerpt: as §1, §2

Data set [2] has as its system clinical methicillin-resistant Staphylococcus aureus (MRSA) isolates. Description: MIC against panel of MRSA / staphylococcal strains (text summaries). It is filed as cell-based.
Excerpt: as §1, §2

The subject of data set [3] is MRSA clinical strain S. aureus FPR3757. The experiment in a line: Minimum bactericidal concentration (MBC) against S. aureus FPR3757. It is filed as cell-based.
Another data set deals with S. aureus (MRSA). The experiment in a line: In vitro time-kill assay. The note with it: 1× MIC, initial inoculum 10^5 CFU, plating over six hours. It is filed as cell-based. The protocol:
FIG. 4 illustrates in vitro time-kill analysis of methicillin resistant Staphylococcus aureus (MRSA). Bacterial killing was monitored by measuring the colony forming unit (CFU) for six hours when treated with compounds 22, 31, 117, and 123 at 1× the minimum inhibitory concentration (MIC) of each compound. The CFU at each time point was determined by plating and then compared to a dimethyl sulfoxide (DMSO) control.
While the MIC data confirmed that these compounds were at least bacteriostatic, Applicants wanted to test for bactericidal properties of both the aminoquinoline and aminoquinolone scaffolds. […] The kinetics of bacterial killing was assessed in vitro using time-kill assays by incubating compounds at 1× their MIC with an initial inoculum of 10^5 colony forming units (CFU) of S. aureus and removing aliquots at various time points to determine the residual CFU by plating.

In the next data set the test system is Staphylococcus simulans. The experiment in a line: Macromolecular synthesis assays (radiolabeled precursor incorporation). The data set is classed as cell-based. The source says:
FIG. 5 illustrates macromolecular synthesis assays (representative data with 123). Time-course for inhibition of incorporation of radiolabeled precursors [^3H]-L-isoleucine (protein), [^3H]-thymidine (DNA), [^3H]-uridine (RNA), and [^3H]-glucosamine (cell wall) in S. simulans by 123 at 0.5×, 1× and 5×MIC. Data are expressed as the percentage of inhibition relative to the DMSO only negative control. The positive control antibiotics denoted by closed circles were used at 10× MIC. Data represent the mean±standard deviation (SD) of triplicate experiments.
Classical macromolecular synthesis assays were performed to provide insight on the putative mechanism of action of the most promising quinoline 31 and quinolone 123 candidates. Disruption of bacterial membranes is not only rapid, but interferes with all major metabolic activities in the cell and is thus easily distinguished by macromolecular synthesis assays. […] The control antibiotics ciprofloxacin, rifampicin, vancomycin and tetracycline were included as inhibitors of DNA, RNA, cell wall, and protein synthesis, respectively. The cells were quenched at various time points with 10% trichloroacetic acid (TCA), filtered, washed and the amount of precursor incorporation was quantified by scintillation counting.

The test system of data set [4] is S. aureus (strain USA300). The experiment in a line: Transmission electron microscopy of treated cells. It is filed as cell-based. Conditions: 1× MIC, after 10 minutes, vs DMSO. The protocol: FIGS. 6A, 6B and 6C illustrate transmission electron microscopy (TEM) imaging of MRSA USA300 treated with compounds 22 and 31.
Transmission electron microscopy (TEM) and fluorescence microscopy (FM) allowed Applicants to directly observe the effects of the novel 4-aminoquinolines […] 5-aminoquinolones on the cell morphology of staphylococci.
(§3) These cellular defects were not seen in any of the control cells treated with DMSO. Fluorescent microscopy was performed on a S. aureus (strain COL) strain after treatment with either DMSO, 31 or 123 for 30 minutes followed by staining with FM 4-64 (red membrane stain), bodipy-vancomycin (Van-FL, green stain), and Hoechst (blue DNA stain).

The subject of a further data set is S. aureus (strain COL). Description: Fluorescent microscopy of membrane, cell wall and DNA. It is filed as cell-based. The note with it: 1× MIC, 30 minutes, vs DMSO. The protocol: FIGS. 7A and 7B illustrate fluorescent microscopy (FM) analysis of the membrane, cell wall, and DNA in MRSA. FM of COL MRSA strain treated with compound 123 (FIG. 7B, bottom row) at 1×MIC and DMSO (FIG. 7A, top row) for 30 minutes followed by staining with FM-64 (far left column, 0.5 μg/mL), VanFL (second column, 1 μg/mL), and Hoechst (third column, 1 μg/mL) for 5 minutes and washed with 1× phosphate buffered saline (PBS) before imaging (fourth column, overlay).
as §3

For data set [5], the system named is S. aureus membranes (versus erythrocyte membranes). Description: in vitro. The data set is classed as cell-based, sheep. The note with it: sheep. The protocol:
(§4) FIG. 8 illustrates percent hemolysis analysis of sheep erythrocytes. Concentration-dependent hemolysis was measured by monitoring the optical density (OD)540 of PBS-washed sheep erythrocytes. Complete hemolysis (100%) was confirmed by treatment of erythrocytes with Triton X-100. Data points represent the mean±SD of triplicate experiments.
(§5) The macromolecular synthesis assay, TEM, and FM experiments were all consistent with membrane disruption. […] The high membrane selectivity of the 5-aminoquinolin-4-ones in this assay is impressive and is in accordance with the observed therapeutic index (CC50/MIC).

The next data set relates to sheep erythrocytes. Description: in vitro. It is filed as cell-based. Conditions: sheep, 32 μg/mL. The protocol: as §4, §5
The test system of the next data set is MRSA. Conditions: HTS hit, previously reported by Applicants; cited from earlier work.
Data set [6] relates to membrane of gram-positive bacteria. The note with it: previously reported; cited from earlier work.
A further data set deals with eukaryotic membranes. The note with it: cited from earlier work.
For data set [7], the system named is erythrocyte membranes (versus S. aureus membranes). Description: in vitro. It is filed as cell-based, sheep. Conditions: sheep; read-out: selectivity for S. aureus membranes over erythrocyte membranes. The protocol: as §4, §5
The nature of a further data set: Solubility. It is filed as physicochemical.
Where [8] appears, read: Staphylococcus aureus, MRSA, read-out: MIC.
Setting [9] is: six S. aureus strains of Table 9, read-out: MIC towards all six S. aureus strains.

Usually MIC stands for the least concentration at which growth counts as inhibited.

≈ marks a conversion by molar mass, not a printed value. Entries after “also recorded” stand apart in the source; their conditions may differ. Like-named read-outs stand apart in the source and are kept apart here.

`O=c1cc(C(F)(F)F)[nH]c2cc(F)cc(Nc3ccc(C(F)(F)F)cn3)c12` [Compound 123]: the MIC (in data set [1]; in [1] (setting [8]); in the data set with S. aureus MW2; with S. aureus COL; with S. aureus N325; against S. aureus NRS71) was under 0.06 µg/mL each time. Besides, the MIC in the data set on S. aureus NIH04008 is under 0.06 µg/mL; against S. epidermidis NIH04003, under 0.06 µg/mL; against E. faecalis DHMC #1, 8 µg/mL (≈ 20.4 µM); against E. faecium DHMC #1, 8 µg/mL (≈ 20.4 µM); in [2] (read-out: MIC against numerous clinical MRSA isolates), at most 0.06 µg/mL; in [2] (setting [9]), under 0.06 µg/mL. Further, in data set [3], the “MBC relative to MIC” value is reported as “MBCs equal to their MIC values”. Further, the “time-kill: CFU reduction” value with S. aureus (MRSA) was “reduced the CFU below the limit of detection at four to six hours”. Also, the “inhibition of DNA, RNA, protein and cell-wall synthesis” value in the data set with Staphylococcus simulans (0.5×, 1× and 5× MIC) was “concentration-dependent inhibition of DNA, RNA, protein and cell-wall synthesis”. The “inhibition of macromolecular processes at 5× MIC” value with Staphylococcus simulans (5× the MIC, DNA, RNA, protein, cell wall precursor incorporation) is reported as “completely inhibited all macromolecular processes”. Further, the “cell morphology in TEM images” value in data set [4] is “cross-wall-septum formation with reduced splitting; also recorded: mesosome-like membrane inclusions”. Also, the “DNA and cell wall staining (Hoechst, Van-FL)” value with S. aureus (strain COL) was “little or no change compared to the DMSO control”. Besides, the “membrane staining (FM 4-64)” value with S. aureus (strain COL) is reported as “membrane defects”. Moreover, the selectivity ratio in data set [5] is over 500. For the same compound, the hemolysis entry in the data set on sheep erythrocytes is on record as “None of the compounds except 76, displayed any hemolysis”.
In the case of `O=c1cc(C(F)(F)F)[nH]c2c(OC(F)(F)F)cccc12` [DNAC-2], the “MIC against MRSA” value in the data set with MRSA is 8 µg/mL (≈ 26.9 µM). In addition, the “membrane effect on gram-positive bacteria” value in data set [6] is on record as “partial membrane depolarization”. In addition, in the data set with eukaryotic membranes, the “toxicity towards eukaryotic membranes” value is listed as “no toxicity towards eukaryotic membranes”.
For the compound `O=c1cc(C(F)(F)F)[nH]c2cc(C(F)(F)F)cc(Nc3ccc(C(F)(F)F)cn3)c12` [Compound 111], the MIC (in data set [1] (setting [8]); in the data set with S. aureus MW2; against S. aureus COL; with S. aureus N325; against S. aureus NRS71; with S. aureus NIH04008) was under 0.06 µg/mL in each case. The minimal inhibitory concentration (MIC) with S. epidermidis NIH04003 is under 0.06 µg/mL; in the data set on E. faecalis DHMC #1, 2 µg/mL (≈ 4.53 µM); against E. faecium DHMC #1, 2 µg/mL (≈ 4.53 µM); in data set [2] (setting [9]) it was under 0.06 µg/mL. Further, the selectivity ratio in data set [7] was over 500. Besides, the solubility result in the data set “Solubility” is recorded as “low solubility”.
